pEC50, pIC50: −log10 of the molar value. The source made the active and inactive calls.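 Rule for the calls: active = compounds giving half or more protection of infected cells from virus-caused growth loss, again on retest; inactive = the rest.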
Tested on: CEM cells HIV-1 protection, formazan growth assay
Assay: NCI AIDS Antiviral Assay
Details: for pIC50: measured here: growth of uninfected CEM cells
Summary of the method: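 Five concentrations of each compound were applied to infected and uninfected human CEM cells. Protection from HIV-1 was judged from growth measured with a soluble formazan assay.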

Row | Structure (SMILES) | pEC50 | pIC50 | outcome
1 | C#Cc1cccc(N2C(=O)c3c(c(-c4ccccc4)c(-c4ccc(Cc5ccc(-c6c(-c7ccccc7)c7c(c(-c8ccccc8)c6-c6ccccc6)C(=O)N(c6cccc(C#C)c6)C7=O)cc5)cc4)c(-c4ccccc4)c3-c3ccccc3)C2=O)c1 | < 4.63 | < 4.63 | –
2 | Cc1cc(NS(=O)(=O)c2ccc(NC(=O)c3ccc4[nH]c5ccccc5c(=O)c4c3)cc2)no1 | < 3.70 | 4.03 | –
3 | O=C1OCCCCOC(=O)c2ccccc2SSc2ccccc21 | < 3.70 | < 3.70 | –
4 | O=C1C=CC(=O)c2c1ccc1c3ccccc3n(-c3ccccc3)c21 | < 4.65 | 5.97 | –
5 | O=C1CNC(=O)c2[nH]cnc2N1 | – | – | inactive
6 | Cc1nc2c3c(ccc2[nH]c1=O)C(=O)c1ccccc1C3=O | – | – | inactive
7 | COc1cc(CC2c3cc(OC)c(OC)cc3CCN2C)c(C(=O)O)cc1OC (stereo unspecified) | – | – | inactive
8 | CC1CC(C)CC(C)C(O)/C(C#N)=C/C=C/CC(C2CCCC2C(=O)O)OC(=O)CC(O)C(C)C1 (stereo unspecified) | < 5.59 | 8.24 | –
9 | O=c1[nH]nc(Cc2ccccc2)n1/N=C\c1ccccc1 | < 3.70 | < 3.70 | –
10 | CCCCn1c(N)c(N=O)c(=O)n(CCCC)c1=O | < 3.70 | 4.05 | –
11 | ClC(Cl)(Cl)C1CCOC1n1nnc2ccccc21 (stereo unspecified) | – | – | inactive
12 | COc1ccc2c(c1)CC[C@@H]1[C@@H]2CC[C@]2(C)/C(=N/OCCN3CCCCC3)CC[C@@H]12 | < 4.70 | 5.50 | –
13 | O=C1CC(c2ccco2)C2(C(=O)NC(=O)NC2=O)C(c2ccco2)C1 (stereo unspecified) | < 3.70 | < 3.70 | –
14 | O=C1CC2C1C1C=CC2n2c(=O)n(-c3ccccc3)c(=O)n21 (stereo unspecified) | < 3.65 | < 3.65 | –
15 | Cc1cc(-c2cccs2)oc(=O)c1NC(=O)c1cnccn1 | < 3.70 | < 3.70 | –
16 | NC(=O)c1ccc(NC=O)cc1 | < 2.82 | 3.01 | –
17 | CN(Cc1cnc2nc(N)nc(N)c2n1)c1ccc(C(=O)NC(CCC(=O)NC(CC(P(=O)(O)O)P(=O)(O)O)C(=O)O)C(=O)O)cc1 (stereo unspecified) | < 4.00 | 6.66 | –
18 | Cc1c(NC(=S)NC(=O)c2ccc([N+](=O)[O-])cc2)c(=O)n(-c2ccccc2)n1C | – | – | inactive
19 | Cc1ccc(S(=O)(=O)/N=C2/N(C)CCCS2(=O)=O)cc1 | < 3.70 | < 3.70 | –
20 | CC1(C)O[C@@H]2[C@H](O1)C(=O)O[C@@H]2CO | < 3.70 | < 3.70 | –
21 | c1ccc2c(c1)c1ccccc1c1nc3c(nc21)CCCC3 | < 3.70 | < 3.70 | –
22 | O=C(Nc1ccc(O)cc1)C(Cl)(Cl)Cl | < 3.70 | 4.40 | –

Row | Structure (SMILES) | pEC50 | pIC50 | outcome
23 | CCCC(=O)CC(C)C(=O)C(=O)NC12CC3CC(CC(C3)C1)C2 (stereo unspecified) | < 3.53 | < 3.53 | –
24 | CSS(C)(=O)=O | < 2.95 | 4.27 | –
25 | COC1=CC23CCCN2CCc2cc4c(cc2C3C1O)OCO4 (stereo unspecified) | – | – | inactive
26 | CN(C)C1=CC(=O)C(=O)c2ccncc21 | – | – | inactive
27 | C=C1CC(CN2CCC(=O)NC2=O)(c2ccccc2)OC1=O (stereo unspecified) | < 3.70 | 5.83 | –
28 | CCOC(=O)NC(NNc1ccc([N+](=O)[O-])cc1[N+](=O)[O-])(C(F)(F)F)C(F)(F)F | < 3.70 | 4.36 | –
29 | CC1(C)CC(Nc2ccc(Nc3ccccc3)cc2)CC(C)(C)N1 | < 3.25 | 5.37 | –
30 | CCCCOP(=O)(/C=C/c1ccc([N+](=O)[O-])cc1)OCCCC | < 4.68 | < 4.68 | –
31 | CC(=O)Oc1ccc(/C=C/C(=O)OCCCOC(=O)/C=C/c2ccc(OC(C)=O)c(OC(C)=O)c2)cc1OC(C)=O | < 4.00 | < 4.00 | –
32 | CSc1nc(NC2OC(COC(C)=O)C(OC(C)=O)C(OC(C)=O)C2OC(C)=O)c(N=CC=Nc2c(NC3OC(COC(C)=O)C(OC(C)=O)C(OC(C)=O)C3OC(C)=O)nc(SC)n(C)c2=O)c(=O)n1C (stereo unspecified) | – | – | inactive
33 | CC1(C(=O)O)CCCC2(C)[C@@H]3CCC4CC3(CC[C@H]12)C[C@@]4(C)O (stereo partly specified) | < 3.70 | < 3.70 | –
34 | CCN(CC)C(=S)SCCCS(=O)(=O)O | – | – | inactive
35 | CC(=O)C1=C2SCCN2C(=O)CC1 | < 3.87 | < 3.87 | –
36 | Cc1ccc(S(=O)(=O)S/C(=N\c2ccccn2)Nc2ccccn2)cc1 | < 3.49 | 4.08 | –
37 | C[PH+](C)CC[PH+](C)C.[C-]#[O+].[C-]#[O+].[C-]#[O+].[Fe] | < 3.70 | < 3.70 | –
38 | C=C(CS(=O)(=O)c1ccccc1)[P+](c1ccccc1)(c1ccccc1)c1ccccc1 | – | – | inactive
39 | CCNc1nc2c(=O)n(C)c(=O)n(C)c2s1 | < 3.73 | < 3.73 | –
40 | COc1ccc(CSC2=C(C#N)C(=O)NC3(CCCCC3)S2)cc1 | < 3.70 | 3.96 | –
41 | CCC[CH2][Sn]1([CH2]CCC)[O]C(=O)C2C(C=C(C)C)C=C(C)C(C)C2C(=O)[O]1 (stereo unspecified) | < 5.70 | 7.06 | –
42 | O=C(N[C@H](CO)[C@H](O)c1ccc([N+](=O)[O-])cc1)C(Cl)Cl | < 3.70 | < 3.70 | –
43 | CCOCC(=O)N[C@H]1CCc2cc(OC)c(OC)c(OC)c2-c2ccc(SC)c(=O)cc21 | < 6.70 | 8.94 | –
